Entries after “also recorded” stand apart in the source; their conditions may differ. Where two headings read alike, the source gives them in different places. No end group written: not given here.
Assays:
TLR4 activation by LPS = assay: TNFα secretion by RAW264.7 macrophages stimulated with LPS; type: cell-based, murine; conditions: for inhibition of LPS activation of macrophages (TNFα secretion), in words: LPS 10 ng/ml, peptide 20 μM (FIGS. 1A, 2)
Description: (§1) All in vitro assays were performed on RAW264.7 murine macrophages (ATCC-TIB71). Cells were grown in DMEM supplemented with 10% FBS, L-glutamine, sodium pyruvate, non-essential amino acids and antibiotics (Biological Industries, Beit Haemek, Israel). Incubator was set on 37° C. with a humidified atmosphere containing 5% CO2.
(§2) 2×10^5 cells per well were cultured overnight in a 96-wells plate. The following day, the media were replaced by fresh DMEM, including all supplements. Peptides were dissolved in DMSO and added to the cells in different concentrations. Final concentration of DMSO was 1% for all groups. Cells were incubated with the peptide for 2 hours, then LPS (TLR4 activator) or LTA (TLR2 activator) was added to the cells at 10 ng/ml or 500 ng/ml, respectively. The cells were further incubated for 5 hrs at 37° C., after which samples of the media from each treatment were collected and stored at −20° C. TNFα concentration in each sample was evaluated using a mouse TNFα enzyme-linked immunosorbent assay kit (Biosource™ ELISA, Invitorgen), according to the manufacturer's protocol. All experiments were done in triplicates.

E. coli 25922 = type: cell-based
Description: (§3) The antibacterial activity of the peptides was examined in sterile 96-well plates (Nunc F96 microtiter plates) in a final volume of 100 μl, as follows. Aliquots (50 μl) of a suspension containing bacteria at a concentration of 10^6 colony-forming units/ml in culture medium (LB medium) were added to 50 μl of peptide serially diluted in culture medium (100 μM-0.78 μM). Inhibition of growth was determined by eye after an incubation of 18-20 h at 37° C. Antibacterial activities were expressed as the minimal inhibitory concentration, the concentration at which 100% inhibition of growth was observed after 18-20 h of incubation. In these the effect of the peptides on E. coli (ATCC:25922) and S. aureus (ATCC:6538P) was tested.

S. aureus 6538P = type: cell-based
Description: as §3

RAW264.7 macrophages = type: cell-based, murine; conditions: for IC50: 2 h; for LC50 (cytotoxicity): toxicity, XTT, 2 hours incubation (method: LC50), read-out: IC50 macrophages RAW264.7
Description: as §1
1×10^4 cells per well were grown overnight on a 96-well plate. The following day, the media were replaced with 90 μl fresh culture medium and 10 μl solution buffer containing different concentrations of the different peptides. Peptide concentrations ranged from 0.78-100 μM. The cells were then incubated for 2 hours before adding to each well 50 μl of 2,3-bis-2H-tetrazolium-5-carboxanilide inner salt (XTT) reaction solution (Biological Industries). Viability was determined as described previously (Makovitzki et al. Cancer Res 69, 3458-63, 2009; Papo et al. 2006). The LC50 (the concentration at which 50% of the cells die) for each peptide was obtained from the dose-dependent cell viability curves.

TLR2 activation by LTA = assay: TNFα secretion by RAW264.7 macrophages stimulated with LTA; type: cell-based, murine; conditions: LTA 500 ng/ml; peptide 20 μM (FIG. 1A)
Description: as §1, §2

Balb/c mice = assay: Antigen (OVA) induced anaphylactic shock; type: in vivo; conditions: for Survival of anaphylactic shock (%): i.v. 10-15 mg/kg, 30-45 minutes prior to soluble OVA challenge
Description: The inhibitory capacity of the Kn(AL)nKn peptides was tested in the most rigorous manner for inhibition of otherwise fatal anaphylaxis. In this model, Balb/c mice were immunized by an i.p. injection of 100 μg OVA in 5 mg Alum and 1.5 μg pertusis, a protocol that favors IgE-type of response. Three weeks later the immunized mice received an i.v. injection of soluble OVA (3.5-5 μg), resulting in a rapid and aggressive anaphylactic shock. In this specific model, the immunized mice die within 10-20 minutes after the systemic (i.v.) OVA injection.
To test the ability of the peptides of the invention to inhibit anaphylactic shock formation, an i.v. injection of the K2(AL)8K2 peptide at 10-15 mg/kg was administered, 30-45 minutes prior to the soluble OVA challenge. Strikingly, this single injection rescued 87% of the sensitized mice (Table 7). […] In several mice that were protected by the K2(AL)8K2 peptide, the protection lasted for at least 2 days. Peptide treated mice died of anaphylactic shock only after systemic injection of a very high dose of OVA. Still, the exact conditions for optimum protective activity need to be validated.

RBL-2H3 cells = assay: IgE and DNP-BSA mediated degranulation (β-hexoseaminidase release); type: cell-based, rat; conditions: for Inhibition of Degranulation (%): peptide concentration 20 μM, derived from FIG. 9A
Description: In order to study the specific effect of the peptides of the invention on direct IgE mediated degranulation, the rat basophilic cell line (RBL-2H3) was used. This cell line expresses high levels of surface IgE receptor that binds IgE with high affinity (FcεRI). Upon adding an allergen (IgE antigen) there is a cross-linking of adjacent FcεRs that results in degranulation and release of histamine. Degranulation was measured as release of intracellular β-hexoseaminidase (Nunomura et al., Int Immunol 17, 685-94, 2005).
In this assay system, RBL cells were incubated with the DNP-specific murine monoclonal IgE SPE7 (Eshhar et al., J Immunol 124:775, 1980) for 2.5 hours. The cells were washed and centrifuged and then further incubated with the DNP-BSA antigen that crossed-link the FcεRI bound IgE. Next, extracellular hexoseaminidase levels were evaluated by their ability to hydrolyze the 4-nitrophenyl-N-acetyl-β-D-glucosaminide substrate which results in the accumulation of a colored product. The tested peptides (see Table 5) were added at different concentrations and stages of the assay and tested for their ability to inhibit this reaction.
In the first set of experiments, RBLs were incubated with different concentrations of the (AL)6AK2 peptide or irrelevant control peptide (alpha subunit peptide) in the presence of IgE. Following incubation, the cells were washed and DNP10-BSA with peptide was added to crosslink adjacent FcεRI (FIG. 6). Following incubation, the cells were washed and suspended in the degranulation medium for either 30 (FIG. 6A) or 60 min. (FIG. 6B).

RBL cells = type: cell-based, rat
C57BL mice = assay: In vivo toxicity in mice; conditions: 100 mg/kg i.p.
Description: Toxicity was tested by intraperitoneal injection of K2(AL)8K2 (100 mg/kg in 400 μl saline) in female C57B1 mice (n=2). Mice were continuously observed for 1 hour immediately following injection and once per day for 7 days. To examine the effect of our peptides on acute septic shock driven by LPS hyperactivation of TLR4 we have used murine models as described before (Zheng et al. Int Immunopharmacol 10, 1209-19, 2010; Arima et al, 2005). Briefly, 12 weeks old C57 Black female mice were treated with 100 ng of LPS injected IP in a saline solution (200 μl, pH 6.5) containing 200 mg/ml of D-galactosamine (Calbiochem). Treated mice received one IP injection of 10 mg/kg peptide dissolved in saline (200 μl) following the LPS injection. In the second model heat-killed bacteria were used to induce a lethal septic shock. E. coli cells were grown to a mid log phase (OD=0.5) at 37° C., cooled on ice, and centrifuged at 3500 rpm for 10 minutes at 4° C. The cells were re-suspended in saline for a concentration of 2×10^9 cells in 200 μl and heated at 95° C. for 30 minutes. Each animal received an IP injection of 2×10^9 cells in 200 μl saline followed by injection of 10 mg/kg peptide dissolved in saline (200 μl). Animals were monitored for survival and for signs of sepsis for the next 14 days after LPS injection. Peptides used as the acetic acid salts for in vivo experiments. […]

[1] = LPS binding assay with NBD-labeled peptides; conditions: NBD-labeled peptide affinity to LPS
Description: NBD-labeled peptides (50 μl, 2 μM, PBS^−/− 2% DMSO) were added to different concentrations of LPS (50 μl PBS^−/−) in a opaque black 96 well plate. After 10 minutes of incubation at room temperature, the fluorescence was measured using an excitation of 467 nm and emission of 530 nm. The data were plotted and Kd and Bmax values obtained using NLLSQ analysis.

[2] = 100% inhibition of growth after 18-20 h

Substance: KKAVAVAVAVAVAVAVAVKK-NH2 [K2(AV)8K2]
- inhibition of LPS activation of macrophages (TNFα secretion), in words (TLR4 activation by LPS): medium inhibition; also recorded: lower activity
- MIC E. coli 25922 (E. coli 25922; 25922): >100 µM
- MIC S. aureus 6538P (S. aureus 6538P; 6538P): >100 µM
- IC50 (RAW264.7 macrophages): 90 µM
- inhibition of LTA activation of macrophages (TNFα secretion), in words (TLR2 activation by LTA): good inhibition

Substance: ALALALALALALALK-NH2 [(AL)7K]
- MIC E. coli 25922 (E. coli 25922; [2]): >100 µM
- MIC S. aureus 6538P (S. aureus 6538P; [2]): >100 µM
- LC50 (cytotoxicity) (RAW264.7 macrophages): > 100 µM

Substance: KALALALALALALALALALK-NH2 [K(AL)9K]
- MIC E. coli 25922 (E. coli 25922; 25922): >100 µM
- MIC S. aureus 6538P (S. aureus 6538P; 6538P): >100 µM
- IC50 (RAW264.7 macrophages): > 100 µM

Substance: LALALALALALALALALALK-NH2 [L(AL)9K]
- Survival of anaphylactic shock (%) (Balb/c mice): 0%
- protection from anaphylactic shock, in words (Balb/c mice; mouse, in vivo): failed also to give any protection
- MIC E. coli 25922 (E. coli 25922; [2]): >100 µM
- MIC S. aureus 6538P (S. aureus 6538P; [2]): >100 µM
- inhibition of IgE/DNP-BSA degranulation, in words (RBL-2H3 cells): no inhibition
- Inhibition of Degranulation (%) (RBL-2H3 cells): 0%
- LC50 (cytotoxicity) (RAW264.7 macrophages): > 100 µM

Substance: ALALALALALALALALALKK [4D-(AL)9K2]
- MIC E. coli 25922 (E. coli 25922; [2]): >100 µM
- MIC S. aureus 6538P (S. aureus 6538P; [2]): >100 µM
- LC50 (cytotoxicity) (RAW264.7 macrophages): 50 µM

Substance: ALALALALALALAKK-NH2 [(AL)6AK2, ALALALALALALAKK]
- killing or growth inhibition of RBL cells (RBL cells): did not kill or inhibited the growth
- MIC E. coli 25922 (E. coli 25922; 25922): >100 µM
- MIC S. aureus 6538P (S. aureus 6538P; 6538P): >100 µM
- IC50 (RAW264.7 macrophages): > 100 µM

Substance: KKALALALALALALALALKK-NH2 [K2(AL)8K2]
- adverse effects in vivo (C57BL mice): not adversely affected
- MIC E. coli 25922 (E. coli 25922; 25922): >100 µM
- MIC S. aureus 6538P (S. aureus 6538P; 6538P): >100 µM
- IC50 (RAW264.7 macrophages): > 100 µM

Substance: KKALALALKK-NH2 [K2(AL)3K2, KKALALALKK]
- inhibition of LPS activation of macrophages (TNFα secretion), in words (TLR4 activation by LPS): inactive
- MIC E. coli 25922 (E. coli 25922; 25922): >100 µM
- MIC S. aureus 6538P (S. aureus 6538P; 6538P): >100 µM
- IC50 (RAW264.7 macrophages): > 100 µM
- Kd [1]: 10 to 15 µM

Substance: KALALALKALALKALALALK-NH2 [K(AL)3K(AL)2K(AL)3K]
- inhibition of LPS activation of macrophages (TNFα secretion), in words (TLR4 activation by LPS): highly active
- MIC E. coli 25922 (E. coli 25922; 25922): 25 µM
- MIC S. aureus 6538P (S. aureus 6538P; 6538P): 12.5 µM
- IC50 (RAW264.7 macrophages): 25 µM
- Kd [1]: 9.6 µM

Substance: KKALALALALALAKK-NH2 [K2(AL)5AK2, KKALALALALALAKK]
- inhibition of LPS activation of macrophages (TNFα secretion), in words (TLR4 activation by LPS): lower activity
- inhibition (LPS neutralization) (TLR4 activation by LPS; peptide 20 μM): 50%
- MIC E. coli 25922 (E. coli 25922; 25922): >100 µM
- MIC S. aureus 6538P (S. aureus 6538P; 6538P): >100 µM
- IC50 (RAW264.7 macrophages): > 100 µM
- Kd [1]: 2.7 µM

Substance: KKALALALALALALALALALALAKK [K2(AL)10AK2]
- Survival of anaphylactic shock (%) (Balb/c mice): 50%

Substance: ALALALALALALALALALKK-NH2 [(AL)9K2]
- MIC E. coli 25922 (E. coli 25922; 25922): >100 µM
- MIC S. aureus 6538P (S. aureus 6538P; 6538P): >100 µM
- Inhibition of Degranulation (%) (RBL-2H3 cells): 30%
- IC50 (RAW264.7 macrophages): > 100 µM
- Kd [1]: 4.4 µM

Substance: KALALALALALALAK-NH2 [K(AL)6AK]
- MIC E. coli 25922 (E. coli 25922; 25922): >100 µM
- MIC S. aureus 6538P (S. aureus 6538P; 6538P): >100 µM
- IC50 (RAW264.7 macrophages): > 100 µM

Substance: KKALALALALALALALALKK [4D-K2(AL)8K2]
- MIC E. coli 25922 (E. coli 25922; [2]): 100 µM
- MIC S. aureus 6538P (S. aureus 6538P; [2]): 100 µM
- LC50 (cytotoxicity) (RAW264.7 macrophages): > 100 µM
- Kd [1]: 15.6 µM
